Source: ChEMBL document CHEMBL5291721, “A preclinical secondary pharmacology resource illuminates target-adverse drug reaction associations of marketed drugs” (Nat Commun, 2023)

Legend:
[1] = biological target: Melanocortin receptor 3 (Homo sapiens, UniProt P41968)
[2] = biological target: T1, Neuropeptide Y receptor type 1 (Homo sapiens, UniProt P25929)
T1 sequence (P25929 whole entry): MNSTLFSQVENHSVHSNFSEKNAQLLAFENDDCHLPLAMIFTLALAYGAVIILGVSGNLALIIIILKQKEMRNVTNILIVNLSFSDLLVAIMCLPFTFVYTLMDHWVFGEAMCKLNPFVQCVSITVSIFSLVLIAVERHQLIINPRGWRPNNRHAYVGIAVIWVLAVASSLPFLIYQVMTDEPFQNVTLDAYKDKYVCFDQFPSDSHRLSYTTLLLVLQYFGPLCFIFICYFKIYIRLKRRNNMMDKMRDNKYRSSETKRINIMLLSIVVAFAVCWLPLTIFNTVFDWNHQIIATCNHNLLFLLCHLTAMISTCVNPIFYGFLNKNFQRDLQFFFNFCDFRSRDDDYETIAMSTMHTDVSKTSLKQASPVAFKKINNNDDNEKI

[3] = biological target: T2, Adenosine receptor A1 (Homo sapiens, UniProt P30542)
T2 sequence (P30542 whole entry): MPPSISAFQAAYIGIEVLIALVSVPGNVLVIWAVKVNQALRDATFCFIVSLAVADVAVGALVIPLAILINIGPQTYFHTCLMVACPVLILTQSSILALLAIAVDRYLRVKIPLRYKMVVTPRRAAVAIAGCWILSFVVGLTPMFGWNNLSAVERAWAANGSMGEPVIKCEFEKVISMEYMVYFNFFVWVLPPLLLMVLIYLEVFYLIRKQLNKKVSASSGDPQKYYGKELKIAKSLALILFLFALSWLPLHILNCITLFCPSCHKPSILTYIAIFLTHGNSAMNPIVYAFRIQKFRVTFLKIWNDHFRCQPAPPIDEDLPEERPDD

[4] = biological target: T3, Alpha-1A adrenergic receptor (Homo sapiens, UniProt P35348); assay type: functional, cell-based
T3 sequence (P35348 whole entry): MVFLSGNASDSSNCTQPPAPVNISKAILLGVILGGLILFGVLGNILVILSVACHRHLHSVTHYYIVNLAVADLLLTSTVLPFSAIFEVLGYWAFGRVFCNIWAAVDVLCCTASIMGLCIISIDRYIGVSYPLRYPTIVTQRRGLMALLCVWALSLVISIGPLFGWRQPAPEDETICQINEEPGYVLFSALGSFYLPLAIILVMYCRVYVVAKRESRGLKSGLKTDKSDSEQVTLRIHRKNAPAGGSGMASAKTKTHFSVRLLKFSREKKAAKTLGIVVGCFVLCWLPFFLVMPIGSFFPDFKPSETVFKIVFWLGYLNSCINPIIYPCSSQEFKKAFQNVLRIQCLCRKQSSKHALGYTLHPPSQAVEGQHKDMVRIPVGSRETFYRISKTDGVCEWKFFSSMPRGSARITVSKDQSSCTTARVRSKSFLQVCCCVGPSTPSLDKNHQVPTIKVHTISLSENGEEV

[5] = biological target: Cannabinoid receptor 1 (Homo sapiens, UniProt P21554); assay type: functional, cell-based
Sequence of Cannabinoid receptor 1 (P21554 whole entry): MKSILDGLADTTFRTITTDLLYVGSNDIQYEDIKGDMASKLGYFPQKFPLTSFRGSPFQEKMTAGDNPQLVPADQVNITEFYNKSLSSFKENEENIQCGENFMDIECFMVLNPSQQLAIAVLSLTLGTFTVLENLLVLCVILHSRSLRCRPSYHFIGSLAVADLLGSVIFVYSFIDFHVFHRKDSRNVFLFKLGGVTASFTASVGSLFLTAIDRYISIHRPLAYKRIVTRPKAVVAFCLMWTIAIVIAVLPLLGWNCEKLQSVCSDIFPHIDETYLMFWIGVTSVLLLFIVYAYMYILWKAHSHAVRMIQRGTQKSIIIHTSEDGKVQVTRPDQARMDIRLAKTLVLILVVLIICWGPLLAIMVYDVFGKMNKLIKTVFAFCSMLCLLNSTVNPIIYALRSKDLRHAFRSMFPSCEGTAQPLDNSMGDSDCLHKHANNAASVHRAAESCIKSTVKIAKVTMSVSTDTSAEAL

[6] = biological target: Sodium-dependent noradrenaline transporter (Homo sapiens, UniProt P23975)
Sequence of Sodium-dependent noradrenaline transporter (P23975 whole entry): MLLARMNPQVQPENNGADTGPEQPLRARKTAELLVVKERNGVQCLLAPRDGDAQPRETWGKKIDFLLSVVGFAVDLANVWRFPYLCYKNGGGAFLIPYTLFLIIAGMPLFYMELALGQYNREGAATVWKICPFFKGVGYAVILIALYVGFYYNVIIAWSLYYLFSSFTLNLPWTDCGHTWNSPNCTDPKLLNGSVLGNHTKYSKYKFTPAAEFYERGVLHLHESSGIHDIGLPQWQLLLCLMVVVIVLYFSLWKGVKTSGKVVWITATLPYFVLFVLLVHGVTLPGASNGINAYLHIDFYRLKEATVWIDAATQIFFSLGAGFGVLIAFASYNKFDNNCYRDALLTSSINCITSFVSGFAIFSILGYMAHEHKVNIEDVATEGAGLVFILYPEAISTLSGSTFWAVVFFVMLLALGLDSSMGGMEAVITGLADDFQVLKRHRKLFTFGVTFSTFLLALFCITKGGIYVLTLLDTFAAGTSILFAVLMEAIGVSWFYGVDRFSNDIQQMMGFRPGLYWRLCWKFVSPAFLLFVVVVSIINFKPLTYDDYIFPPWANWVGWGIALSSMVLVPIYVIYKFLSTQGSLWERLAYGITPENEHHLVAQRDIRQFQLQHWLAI

[7] = biological target: T4, Alpha-2B adrenergic receptor (Homo sapiens, UniProt P18089)
T4 sequence (P18089 whole entry): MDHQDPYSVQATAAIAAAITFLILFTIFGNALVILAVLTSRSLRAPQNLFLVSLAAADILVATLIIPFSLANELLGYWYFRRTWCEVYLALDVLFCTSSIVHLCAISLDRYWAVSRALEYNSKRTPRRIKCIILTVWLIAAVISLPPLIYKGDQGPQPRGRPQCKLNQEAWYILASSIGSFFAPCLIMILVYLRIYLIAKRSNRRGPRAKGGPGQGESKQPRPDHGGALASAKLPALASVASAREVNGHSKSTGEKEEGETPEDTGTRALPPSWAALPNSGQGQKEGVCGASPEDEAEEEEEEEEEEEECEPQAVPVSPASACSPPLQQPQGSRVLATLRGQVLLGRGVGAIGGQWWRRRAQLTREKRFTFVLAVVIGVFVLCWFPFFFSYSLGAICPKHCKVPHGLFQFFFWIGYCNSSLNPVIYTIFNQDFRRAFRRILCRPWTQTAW

[8] = biological target: Motilin receptor (Homo sapiens, UniProt O43193)
Sequence of Motilin receptor (O43193 whole entry): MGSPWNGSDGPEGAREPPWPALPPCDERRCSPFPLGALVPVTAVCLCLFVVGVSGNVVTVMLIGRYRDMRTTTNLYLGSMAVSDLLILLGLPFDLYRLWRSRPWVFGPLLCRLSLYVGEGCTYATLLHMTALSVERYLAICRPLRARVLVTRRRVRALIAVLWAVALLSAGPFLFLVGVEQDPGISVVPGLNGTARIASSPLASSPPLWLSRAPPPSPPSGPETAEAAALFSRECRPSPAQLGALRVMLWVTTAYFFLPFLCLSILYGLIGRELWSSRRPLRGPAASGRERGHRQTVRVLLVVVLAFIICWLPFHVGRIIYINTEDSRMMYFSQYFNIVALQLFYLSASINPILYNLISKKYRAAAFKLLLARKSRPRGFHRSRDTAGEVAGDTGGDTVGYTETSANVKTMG

[9] = biological target: T5, Adenosine receptor A3 (Homo sapiens, UniProt P0DMS8)
T5 sequence (P0DMS8 whole entry): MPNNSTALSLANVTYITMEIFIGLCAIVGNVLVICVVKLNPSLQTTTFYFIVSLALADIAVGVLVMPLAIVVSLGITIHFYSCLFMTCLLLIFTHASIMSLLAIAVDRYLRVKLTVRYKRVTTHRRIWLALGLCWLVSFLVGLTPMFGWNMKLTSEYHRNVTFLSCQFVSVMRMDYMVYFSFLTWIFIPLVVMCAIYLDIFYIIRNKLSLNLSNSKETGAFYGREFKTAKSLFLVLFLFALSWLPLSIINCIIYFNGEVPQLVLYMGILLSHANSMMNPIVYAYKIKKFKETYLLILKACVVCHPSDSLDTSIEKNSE

[10] = biological target: Histamine H1 receptor (Homo sapiens, UniProt P35367)
Sequence of Histamine H1 receptor (P35367 whole entry): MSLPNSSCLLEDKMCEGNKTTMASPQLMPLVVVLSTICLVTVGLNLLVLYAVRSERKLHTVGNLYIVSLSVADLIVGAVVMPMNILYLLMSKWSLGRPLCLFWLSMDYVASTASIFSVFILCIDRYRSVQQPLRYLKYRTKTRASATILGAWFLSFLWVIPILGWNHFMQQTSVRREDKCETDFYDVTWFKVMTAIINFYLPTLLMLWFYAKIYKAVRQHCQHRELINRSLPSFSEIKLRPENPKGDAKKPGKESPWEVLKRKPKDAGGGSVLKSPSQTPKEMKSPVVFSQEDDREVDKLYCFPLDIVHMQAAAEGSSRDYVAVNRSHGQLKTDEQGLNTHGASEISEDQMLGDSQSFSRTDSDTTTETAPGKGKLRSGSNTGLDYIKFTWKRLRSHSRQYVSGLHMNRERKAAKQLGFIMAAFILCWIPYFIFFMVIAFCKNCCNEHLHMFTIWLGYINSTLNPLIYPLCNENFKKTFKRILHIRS

[11] = biological target: T6, Thromboxane A2 receptor (Homo sapiens, UniProt P21731)
T6 sequence (P21731 whole entry): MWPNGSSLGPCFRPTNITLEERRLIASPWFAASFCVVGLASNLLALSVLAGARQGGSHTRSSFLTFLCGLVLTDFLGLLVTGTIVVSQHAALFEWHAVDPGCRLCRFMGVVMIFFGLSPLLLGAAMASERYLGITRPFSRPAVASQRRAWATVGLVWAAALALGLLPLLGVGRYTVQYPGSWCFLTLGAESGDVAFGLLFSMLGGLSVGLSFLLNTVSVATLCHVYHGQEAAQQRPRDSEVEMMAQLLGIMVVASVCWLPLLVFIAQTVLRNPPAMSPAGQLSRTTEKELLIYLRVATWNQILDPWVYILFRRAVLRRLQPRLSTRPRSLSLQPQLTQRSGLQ

[12] = biological target: Glutamate receptor ionotropic, NMDA 1 (Rattus norvegicus, UniProt P35439)
[13] = biological target: Histamine H2 receptor (Homo sapiens, UniProt P25021); assay type: functional, cell-based
Sequence of Histamine H2 receptor (P25021 whole entry): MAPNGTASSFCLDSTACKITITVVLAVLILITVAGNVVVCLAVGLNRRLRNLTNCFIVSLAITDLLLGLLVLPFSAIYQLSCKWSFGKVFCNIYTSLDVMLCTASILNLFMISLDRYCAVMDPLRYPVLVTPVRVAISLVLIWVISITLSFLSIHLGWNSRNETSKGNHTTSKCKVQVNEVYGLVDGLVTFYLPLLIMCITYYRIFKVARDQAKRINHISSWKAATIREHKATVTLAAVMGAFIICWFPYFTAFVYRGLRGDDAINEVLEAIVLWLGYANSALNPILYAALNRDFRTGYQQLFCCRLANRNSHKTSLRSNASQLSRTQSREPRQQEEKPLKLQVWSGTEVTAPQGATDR

[14] = biological target: Sodium-dependent dopamine transporter (Homo sapiens, UniProt Q01959)
Sequence of Sodium-dependent dopamine transporter (Q01959 whole entry): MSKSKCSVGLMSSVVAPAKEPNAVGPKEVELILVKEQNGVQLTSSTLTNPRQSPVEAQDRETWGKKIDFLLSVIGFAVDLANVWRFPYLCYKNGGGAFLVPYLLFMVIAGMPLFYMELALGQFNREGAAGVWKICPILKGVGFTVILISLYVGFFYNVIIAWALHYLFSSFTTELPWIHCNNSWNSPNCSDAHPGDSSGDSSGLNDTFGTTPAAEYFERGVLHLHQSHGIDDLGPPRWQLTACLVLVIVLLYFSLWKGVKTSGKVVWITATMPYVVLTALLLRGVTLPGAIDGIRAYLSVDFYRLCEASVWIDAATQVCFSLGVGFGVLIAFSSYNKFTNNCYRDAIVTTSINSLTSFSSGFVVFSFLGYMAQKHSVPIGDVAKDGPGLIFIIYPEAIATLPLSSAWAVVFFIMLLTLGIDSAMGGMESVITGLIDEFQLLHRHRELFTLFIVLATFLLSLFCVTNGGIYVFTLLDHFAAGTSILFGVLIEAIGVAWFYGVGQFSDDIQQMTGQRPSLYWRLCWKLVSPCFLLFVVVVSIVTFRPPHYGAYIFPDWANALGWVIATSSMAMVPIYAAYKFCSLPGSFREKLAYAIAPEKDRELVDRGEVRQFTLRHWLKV
Further: assay procedure not described here.

Sequence of Melanocortin receptor 3 (P41968 whole entry): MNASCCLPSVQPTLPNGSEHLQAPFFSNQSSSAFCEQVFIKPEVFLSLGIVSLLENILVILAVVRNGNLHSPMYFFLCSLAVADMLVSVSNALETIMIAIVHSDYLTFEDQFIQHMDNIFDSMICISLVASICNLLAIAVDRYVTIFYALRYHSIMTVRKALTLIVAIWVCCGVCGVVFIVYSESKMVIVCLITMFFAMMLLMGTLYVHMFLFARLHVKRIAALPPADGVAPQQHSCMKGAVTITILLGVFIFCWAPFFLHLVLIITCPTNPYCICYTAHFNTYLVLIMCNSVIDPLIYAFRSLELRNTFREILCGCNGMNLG

| SMILES | AC50 [1] [µM] | AC50 [2] [µM] | AC50 [3] [µM] | AC50 [4] [µM] | AC50 [5] [µM] | AC50 [6] [µM] | AC50 [7] [µM] | AC50 [8] [µM] | AC50 [9] [µM] | AC50 [10] [µM] | AC50 [11] [µM] | AC50 [12] [µM] | AC50 [13] [µM] | AC50 [14] [µM] |
| --- | --- | --- | --- | --- | --- | --- | --- | --- | --- | --- | --- | --- | --- | --- |
| NC(CO)C(=O)NNCc1ccc(O)c(O)c1O (stereo not given) [BENSERAZIDE] | > 30 | 5.67 | > 30 | > 30 | > 30 | > 30 | > 10 | > 10 | 21.6 | > 10 | > 30 | > 10 | > 10 | > 30 |
| O=C1CN=C(c2ccccc2)c2cc(Cl)ccc2N1CC(F)(F)F [HALAZEPAM] | > 30 | > 30 | > 30 | > 30 | > 30 | > 30 | > 30 | > 30 | 26 | > 30 | – | > 30 | > 30 | > 30 |
| COC(=O)[C@H]1[C@@H](OC(=O)c2ccccc2)C[C@@H]2CC[C@H]1N2C [COCAINE] | > 30 | > 30 | > 30 | > 30 | > 30 | – | > 30 | > 30 | > 30 | > 30 | > 30 | > 30 | > 30 | – |
| CCCCCOC(=O)Nc1nc(=O)n([C@@H]2O[C@H](C)[C@@H](O)[C@H]2O)cc1F [CAPECITABINE] | > 30 | > 30 | > 30 | > 30 | > 30 | > 30 | > 30 | > 30 | > 30 | > 30 | – | > 30 | > 30 | > 30 |
| Cc1c(Cl)cccc1Nc1ccccc1C(=O)O [TOLFENAMIC ACID] | > 30 | > 30 | > 30 | 9.5 | > 30 | – | > 30 | > 30 | 12 | > 30 | > 30 | > 30 | > 30 | > 30 |
| CCCCCCC(C)(C)c1cc(O)c2c(c1)OC(C)(C)C1CCC(=O)CC21 (stereo not given) [NABILONE] | > 30 | > 30 | > 30 | > 30 | – | > 30 | > 30 | > 30 | 9.1 | > 30 | – | > 30 | > 30 | 16 |
| COC(=O)C1=C(C)NC(C)=C(C(=O)OC(C)C)C1c1cccc2nonc12 (stereo not given) [ISRADIPINE] | > 30 | > 30 | > 30 | > 30 | – | > 30 | > 30 | 14.7 | 20.3 | > 30 | 20.1 | > 10 | > 30 | 26 |
| [H]/N=C(/N)c1ccc(NCc2nc3cc(C(=O)N(CCC(=O)O)c4ccccn4)ccc3n2C)cc1 [DABIGATRAN] | > 30 | > 30 | > 30 | > 30 | > 30 | > 30 | > 30 | > 30 | > 30 | > 30 | – | > 30 | > 30 | > 30 |
| O=C(O)CCCc1ccccc1 [PHENYLBUTANOIC ACID] | > 10 | > 10 | > 10 | > 30 | – | > 10 | > 30 | > 10 | > 10 | > 30 | > 10 | > 30 | – | 3.2 |
| CCCCCCCCOc1ccccc1C(=O)Nc1ccc(C(=O)OCC[N+](C)(CC)CC)cc1 [OTILONIUM BROMIDE] | 5.1 | 10 | > 30 | – | 19 | 3.3 | 2.9 | 5.7 | 5.3 | 19 | > 30 | > 30 | > 30 | 4.4 |
| CN1CC(=O)N2[C@H](c3ccc4c(c3)OCO4)c3[nH]c4ccccc4c3C[C@@H]2C1=O | > 30 | > 30 | > 30 | – | > 30 | > 30 | > 10 | > 10 | > 30 | > 10 | > 30 | > 10 | > 10 | > 30 |
| CC(Cc1ccccc1)NCCC(c1ccccc1)c1ccccc1 (stereo not given) [PRENYLAMINE] | > 30 | > 30 | > 30 | > 30 | – | 2.3 | 1.7 | > 10 | 15.6 | 7.9 | > 30 | > 10 | > 30 | 4.7 |
| CCCC(CCC)C(=O)O[C@H]1C[C@H]2CC[C@@H](C1)[N+]2(C)C [ANISOTROPINE] | > 30 | > 30 | > 30 | 19 | > 30 | – | > 30 | > 30 | > 30 | > 30 | > 30 | > 30 | > 30 | > 30 |
| Cc1nc2ccc(CN(C)c3ccc(C(=O)N[C@@H](CCC(=O)O)C(=O)O)s3)cc2c(=O)[nH]1 [RALTITREXED] | > 30 | > 30 | > 30 | > 30 | – | > 30 | > 30 | > 30 | > 30 | > 30 | > 30 | > 30 | > 30 | > 30 |
